Literature values, collected in US9151747B1, “Sucralose antibody and immunoassay” (Mercyhurst University, priority 2013, dated 2015).

Legend:
[1] = background statement
[2] = background statement; remark: listed apart in the source

breakdown by the human body [1]: minimal breakdown
SMILES: OC[C@H]1O[C@H](O[C@]2(CCl)O[C@H](CCl)[C@@H](O)[C@@H]2O)[C@H](O)[C@@H](O)[C@H]1Cl [Sucralose, sucralose]
sweetness relative to table sugar [2]: 600 times
